The experiment addresses T1, NSD2 (Homo sapiens, UniProt O96028).
T1 sequence (O96028 1-1365): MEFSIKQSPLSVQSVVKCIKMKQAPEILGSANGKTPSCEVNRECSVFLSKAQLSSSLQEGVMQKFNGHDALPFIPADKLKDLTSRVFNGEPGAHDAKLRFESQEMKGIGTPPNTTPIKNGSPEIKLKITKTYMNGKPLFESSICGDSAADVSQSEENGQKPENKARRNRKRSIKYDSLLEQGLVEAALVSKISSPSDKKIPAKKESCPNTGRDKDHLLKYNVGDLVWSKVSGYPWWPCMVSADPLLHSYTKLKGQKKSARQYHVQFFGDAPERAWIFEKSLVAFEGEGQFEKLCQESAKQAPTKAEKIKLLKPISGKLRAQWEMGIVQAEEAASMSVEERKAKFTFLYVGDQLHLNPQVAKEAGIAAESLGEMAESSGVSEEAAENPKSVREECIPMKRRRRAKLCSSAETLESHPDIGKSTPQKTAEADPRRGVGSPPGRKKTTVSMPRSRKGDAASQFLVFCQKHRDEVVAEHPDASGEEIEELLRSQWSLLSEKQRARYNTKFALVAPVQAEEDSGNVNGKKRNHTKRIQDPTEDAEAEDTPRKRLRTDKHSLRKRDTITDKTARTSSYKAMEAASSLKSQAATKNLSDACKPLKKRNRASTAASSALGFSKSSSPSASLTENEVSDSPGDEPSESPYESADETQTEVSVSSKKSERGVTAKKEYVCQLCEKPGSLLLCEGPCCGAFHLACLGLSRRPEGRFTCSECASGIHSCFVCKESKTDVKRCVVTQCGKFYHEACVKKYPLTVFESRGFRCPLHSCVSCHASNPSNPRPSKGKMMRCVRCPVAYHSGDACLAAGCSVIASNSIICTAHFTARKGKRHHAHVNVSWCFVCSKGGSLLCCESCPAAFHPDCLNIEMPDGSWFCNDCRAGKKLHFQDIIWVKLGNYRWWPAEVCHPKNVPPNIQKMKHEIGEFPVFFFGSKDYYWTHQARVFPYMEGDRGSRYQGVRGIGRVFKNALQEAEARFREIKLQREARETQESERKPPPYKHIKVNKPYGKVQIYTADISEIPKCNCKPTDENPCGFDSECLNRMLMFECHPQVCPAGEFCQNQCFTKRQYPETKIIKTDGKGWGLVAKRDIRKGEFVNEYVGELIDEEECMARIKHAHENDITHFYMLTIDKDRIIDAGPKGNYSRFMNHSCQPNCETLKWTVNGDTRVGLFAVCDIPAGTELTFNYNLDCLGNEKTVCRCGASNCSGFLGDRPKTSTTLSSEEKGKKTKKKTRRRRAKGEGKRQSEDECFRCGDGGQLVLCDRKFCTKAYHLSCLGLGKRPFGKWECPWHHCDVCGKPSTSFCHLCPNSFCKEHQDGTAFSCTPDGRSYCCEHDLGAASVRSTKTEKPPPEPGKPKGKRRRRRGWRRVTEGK
As to the kind of experiment: Pharmacodynamic assessment in 22RV1 xenograft model. Conditions: 5 consecutive days. On the set-up: from tissue; host or cells: 22RV1 subcutaneous xenograft tumours in CB17 SCID mice. Format: in vivo, mice. The method, then: We finally performed pharmacodynamic assessment of LLC0424 in both the SEM and 22RV1 xenograft model. Based on the solubility of LLC0424 and the tolerance of the mice, we chose 60 mg/kg as the dosage for the pharmacodynamic study. LLC0424 was administrated by intravenous (iv) or intraperitoneal (ip) injection at a dose of 60 mg/kg for 5 consecutive days. The tumor tissues were harvested at day 5 and subjected to histology and Western blot analysis (Figure 7A, and SI, Figure S6A).
First, 6–8 weeks old male CB17 severe combined immunodeficiency (SCID) mice were procured from the University of Michigan breeding colony. Subcutaneous tumors were established at both sides of the dorsal flank of mice. Tumors were measured at least biweekly using digital calipers following the formula (π/6) (L × W2), where L is length and W is width of the tumor. At the end of the studies, mice were sacrificed and tumors extracted. For each tumor, a part is […] followed by embedding in paraffin to make tissue blocks. The blocks were sectioned at […] for immunohistochemistry analysis. Another part is made into tissue lysates for Western blotting analysis. The University of Michigan Institutional Animal Care and Use Committee (IACUC) approved all in vivo studies. […]

Structures are written as SMILES.

Consider `O=C1CCC(N2C(=O)c3ccc(N4CCC(NC(=O)c5ccc(NC(=O)c6ccc(CN(C(=O)c7ccc8c(c7)OCC(=O)N8)C7CC7)cc6)cc5)CC4)cc3C2=O)C(=O)N1` (centres unmarked) [compound 10l, N-Cyclopropyl-N-(4-((4-((1-(2-(2,6-dioxopiperidin-3-yl)-1,3-dioxoisoindolin-5-yl)piperidin-4-yl)carbamoyl)phenyl)carbamoyl)benzyl)-3-oxo-3,4-dihydro-2H-benzo[b][1,4]oxazine-7-carboxamide], for which, under “60 mg/kg iv or ip, versus vehicle”, the “NSD2 level in tumor tissue” value was “significantly downregulated”. Besides, the “NSD2 degradation, iv versus ip administration” value (60 mg/kg) is “comparable level of NSD2 degradation”.

The values are drawn from PMC11094793, “Discovery of LLC0424 as a Potent and Selective in Vivo NSD2 PROTAC Degrader” (Journal of Medicinal Chemistry, 2024).
